{"source": "patent US20060041019A1", "about": "“Inhibitor of anticancer drug side effect” (priority 2002, published 2006)", "type_in_all_cases": "in vivo", "key": {"[1]": {"test_system": "Male mouse models (CBA/J) of spontaneous alveolar epithelial hyperplasia", "assay": "Hair loss as side effect of adriamycin, Test Example 1", "conditions": "ADM 0.1 mg/kg i.p., eight courses", "description": "(§1) Male mouse models (CBA/J) of spontaneous alveolar epithelial hyperplasia were employed as test animals. These mice develop alveolar epithelial hyperplasia 12 to 15 weeks after birth. Accordingly, they were raised with normal feeds until 19 weeks after birth. […] CPL was mixed with powder feeds (CE-2). The daily dosage of adriamycin (ADM) was 0.1 mg/kg per mouse, and administration was made intraperitoneally once a day for three consecutive days, followed by drug withdrawal for 11 days. This procedure was designated as constituting a single course, and eight courses thereof were conducted.\n(§2) At the time of ADM administration, the body weights of mice were measured and their general conditions were observed. In particular, the occurrence of hair loss was carefully observed. The mice were subjected to autopsy 36 weeks or 37 weeks after birth (with an administration duration of 17 weeks or 18 weeks), and samples were recovered. Tissue blocks were obtained from 3 sites each of the extirpated right and left lungs (6 sites in total), the recovered tissue fragments were fixed, fragments embedded in hydrophilic methacrylate resins were subjected to H-E staining, and the ranges of alveolar epithelial hyperplasia were compared."}, "[2]": {"test_system": "alveolar epithelial hyperplasia in male mouse models (CBA/J)", "assay": "Inhibition of alveolar epithelial hyperplasia, Test Example 1", "description": "as §1\nas §2, with “compared. […]” for “compared.”"}, "[3]": {"test_system": "Mouse models of spontaneous cancer (CBA/J)", "assay": "Hair loss and whisker loss as side effect of adriamycin, Test Example 4", "conditions": "ADM 0.2 mg/kg i.p. in courses; CPL 0.01% in feed; n = 10 (ADM), 9 (ADM and CPL), 10 (CPL)", "excerpt": "Based on the results attained in Test Examples 2 and 3, hair loss and whisker loss were observed under overcrowded conditions or in the presence of a dominant male. […] Accordingly, only the cage in which the dominant male was not present among the group that had been raised under normal conditions was selected, and the effects of CPL for alleviating side effects of an antitumor agent were examined.\nThereafter, they were divided into: the group to which an antitumor agent (adriamycin, ADM) had been administered; the group to which CPL-containing feeds had been administered; and the group to which ADM had been administered in combination with CPL, and these groups of mice were raised. The daily dosage of ADM was 0.2 mg/kg per mouse, and administration was made intraperitoneally once a day for 3 consecutive days, followed by drug withdrawal for 11 days. This procedure was designated as constituting a single course and then continued. CPL was mixed with feeds (CE-2) in amounts of 0.01% thereof."}, "[4]": {"conditions": "CPL 0.01% in feed, group sizes n = 7 (CPL), 8 (CPL and ADM), 10 (ADM)"}}, "data": [{"smiles": "COc1cccc2c1C(=O)c1c(O)c3c(c(O)c1C2=O)C[C@@](O)(C(=O)CO)C[C@@H]3O[C@H]1C[C@H](N)[C@H](O)[C@H](C)O1", "note": "[ADM, adriamycin]", "values": [{"measurement": "Individuals with hair loss around the eyeballs and the skin of the upper lips", "setting": "[1]; 9 out of 10 cases", "result": 90, "unit": "%"}, {"measurement": "Number of individuals undergoing hair loss around the eyeballs", "setting": "[1]; [4]", "result": 9}, {"measurement": "Number of individuals undergoing hair loss at the upper lip", "setting": "[1]; [4]", "result": 9}, {"measurement": "Individuals in which sections with rates of hyperplasia development of 50% or more were observed", "setting": "[2]; FIG. 9, as in the group that did not experience administration", "result": "all individuals"}, {"measurement": "Sections with rates of hyperplasia development of less than 10%, share of the whole", "setting": "[2]; lung tissue sections, 6 sites per individual, autopsy 36 or 37 weeks after birth, FIG. 8", "result": 8.3, "unit": "%"}, {"measurement": "Hair loss and whisker loss (number of individuals)", "setting": "[3]", "result": 4}]}]}
